Experimental data as given in patent US10292412B2, “High solubility natural sweetener compositions” (KRAFT FOODS GLOBAL BRANDS LLC, priority 2012, dated 2019).

Legend:
Type in all cases: physicochemical
[1] = Example 6: solubility rating of rebaudioside A liquid concentrate after 33 months at 35° F.; conditions: water 62.27%, Citric Acid 16.96%, Potassium Citrate 1.4%, Flavor (80%-90% Ethanol) 11%, Reb A 4.4%, Malic Acid 3.89%, Shade 0.08%
Method: A liquid concentrate sample was prepared using rebaudioside A from Cargill. Samples were measured for solubility as defined in sections 46-47. The samples were rated as 3 on the scale after 33 months at 35° F. The formula is included in the table below: […]

[2] = Example 3: solubility (1-5 scale) after seven days; ambient water, heated water or 0.45 micron filtered rebaudioside A solutions with citric acid and ethanol
Method: Several solutions including rebaudioside A were prepared to test the effect of heating and filtering on the solubility of rebaudioside A. The formulations are as follows: […]
The solutions for the ambient water experimentation were prepared by dissolving rebaudioside A in ambient water (about 68° F. to about 77° F.) using a magnetic stir bar. Citric acid and ethanol were then dissolved into the solution using a magnetic stir bar.
The solutions for the heated water experimentation were prepared by heating water to 150° F. Rebaudioside A was added and dissolved using a magnetic stir bar. The solution was removed from the heat and citric acid was added and dissolved by a magnetic stir bar. After the solution cooled to 100° F. or below, ethanol was added and stirred into the solution by a magnetic stirrer.
The solutions for the filtered rebaudioside A experimentation were prepared by first dissolving rebaudioside A in ambient water (about 68° F. to about 77° F.) using a magnetic stir bar. The solution was then passed through a 0.45 micron filter. Citric acid and ethanol were dissolved into the solution using a magnetic stir bar.
Solubility was measured according to the 1-5 scale in the table above after seven days. […]

[3] = Example 2: solubility of rebaudioside A in liquid concentrates with varying water, acid and alcohol; set-up: scale not given here
Method: Liquid concentrate formulations were prepared including varying levels of rebaudioside A, water, alcohol, and acid. The solubility was measured at various concentrations of each of the components and the results are included in the tables below: […]

solubility after seven days ([2]; ambient water, 5 wt % rebaudioside A, all ethanol/acid conditions tested except high ethanol (30% by volume) and high acid (30% by weight)): crystallized
solubility after seven days ([2]; ambient water, 10 wt % rebaudioside A, high ethanol (30% by volume) and high acid (30% by weight)): failed
solubility after seven days ([2]; ambient water, filtered at 0.45 micron, 5 wt % rebaudioside A, all points except low acid/low ethanol): passed
solubility after seven days ([2]; heated water (150° F.), 5 wt % rebaudioside A, all ethanol/acid points): passed
solubility after seven days ([2]; heated water (150° F.), 10 wt % rebaudioside A, all ethanol/acid points): passed
solubility after seven days ([2]; heated water (150° F.), 15 wt % rebaudioside A, low ethanol (10%)/low acid (10%)): failed
solubility after seven days ([2]; heated water (150° F.), 15 wt % rebaudioside A, medium ethanol (20%)/low acid): failed
Response 1 Solubility ([3]; Water/Citric Acid/Ethanol (190 Proof)/RebA 0.00/0/92.44/7.5600 ml): 5
Response 1 Solubility ([3]; Water/Citric Acid/Ethanol (190 Proof)/RebA 0.00/21.92/77.48/0.6048 ml): 1
Response 1 Solubility ([3]; Water/Citric Acid/Ethanol (190 Proof)/RebA 39.71/32.88/19.85/7.5600 ml): 1
Response 1 Solubility ([3]; Water/Citric Acid/Ethanol (190 Proof)/RebA 47.96/0/47.96/4.0824 ml): 1
Response 1 Solubility ([3]; Water/Citric Acid/Ethanol (190 Proof)/RebA 59.56/32.88/0.00/7.5600 ml): 2
Response 1 Solubility ([3]; Water/Citric Acid/Propylene Glycol/RebA 0.00/0/92.44/7.5600 ml): Insoluble
Response 1 Solubility ([3]; Water/Citric Acid/Propylene Glycol/RebA 0.00/0/99.40/0.6048 ml): 1
Response 1 Solubility ([3]; Water/Citric Acid/Propylene Glycol/RebA 0.00/21.92/77.48/0.6048 ml): Insoluble
Response 1 Solubility ([3]; Water/Citric Acid/Propylene Glycol/RebA 33.13/0/66.26/0.6048 ml): 1
Response 1 Solubility ([3]; Water/Citric Acid/Propylene Glycol/RebA 33.13/10.96/55.30/0.6048 ml): 1
Response 1 Solubility ([3]; Water/Citric Acid/Propylene Glycol/RebA 39.71/32.88/19.85/7.5600 ml): Insoluble
Response 1 Solubility ([3]; Water/Citric Acid/Propylene Glycol/RebA 47.96/0/47.96/4.0824 ml): 2
Response 1 Solubility ([3]; Water/Citric Acid/Propylene Glycol/RebA 49.65/24.66/19.87/5.8212 ml): 2
Response 1 Solubility ([3]; Water/Citric Acid/Propylene Glycol/RebA 55.30/10.96/33.13/0.6048 ml): 1
Response 1 Solubility ([3]; Water/Citric Acid/Propylene Glycol/RebA 59.56/32.88/0.00/7.5600 ml): 2
Response 1 Solubility ([3]; Water/Citric Acid/Propylene Glycol/RebA 59.61/16.44/19.87/4.0824 ml): 2
Response 1 Solubility ([3]; Water/Citric Acid/Propylene Glycol/RebA 66.26/0/33.13/0.6048 ml): 1
Response 1 Solubility ([3]; Water/Citric Acid/Propylene Glycol/RebA 66.52/32.88/0.00/0.6048 ml): 1
Response 1 Solubility ([3]; Water/Citric Acid/Propylene Glycol/RebA 69.57/8.22/19.87/2.3436 ml): 3
Response 1 Solubility ([3]; Water/Citric Acid/Propylene Glycol/RebA 79.48/16.44/0.00/4.0824 ml): 3
Response 1 Solubility ([3]; Water/Citric Acid/Propylene Glycol/RebA 92.44/0/0.00/7.5600 ml): 5
Response 1 Solubility ([3]; Water/Citric Acid/Propylene Glycol/RebA 99.40/0/0.00/0.6048 ml): 3
Response 1 Solubility ([3]; Water/Malic Acid/Ethanol (200 Proof)/RebA 0.00/0/92.44/7.5600 ml): Insoluble
Response 1 Solubility ([3]; Water/Malic Acid/Ethanol (200 Proof)/RebA 0.00/0/99.40/0.6048 ml): Insoluble
Response 1 Solubility ([3]; Water/Malic Acid/Ethanol (200 Proof)/RebA 0.00/10.96/88.44/0.6048 ml): 5
Response 1 Solubility ([3]; Water/Malic Acid/Ethanol (200 Proof)/RebA 55.30/10.96/33.13/0.6048 ml): 1
Response 1 Solubility ([3]; Water/Phosphoric Acid/Ethanol (190 Proof)/RebA 0.00/0.00/92.44/7.56 ml): Insoluble
Response 1 Solubility ([3]; Water/Phosphoric Acid/Ethanol (190 Proof)/RebA 0.00/0.00/99.40/0.60 ml): Insoluble
Response 1 Solubility ([3]; Water/Phosphoric Acid/Ethanol (190 Proof)/RebA 0.00/30.81/61.63/7.56 ml): Insoluble
Response 1 Solubility ([3]; Water/Phosphoric Acid/Ethanol (190 Proof)/RebA 0.00/33.13/66.26/0.60 ml): 1
Response 1 Solubility ([3]; Water/Phosphoric Acid/Ethanol (190 Proof)/RebA 0.00/47.96/47.96/4.08 ml): Insoluble
Response 1 Solubility ([3]; Water/Phosphoric Acid/Ethanol (190 Proof)/RebA 0.00/66.26/33.13/0.60 ml): 1
Response 1 Solubility ([3]; Water/Phosphoric Acid/Ethanol (190 Proof)/RebA 0.00/92.44/0.00/7.56 ml): Insoluble
Response 1 Solubility ([3]; Water/Phosphoric Acid/Ethanol (190 Proof)/RebA 0.00/99.40/0.00/0.60 ml): Insoluble
Response 1 Solubility ([3]; Water/Phosphoric Acid/Ethanol (190 Proof)/RebA 15.99/15.99/62.21/5.82 ml): 2
Response 1 Solubility ([3]; Water/Phosphoric Acid/Ethanol (190 Proof)/RebA 15.99/39.10/39.10/5.82 ml): 2
Response 1 Solubility ([3]; Water/Phosphoric Acid/Ethanol (190 Proof)/RebA 15.99/62.21/15.99/5.82 ml): Insoluble
Response 1 Solubility ([3]; Water/Phosphoric Acid/Ethanol (190 Proof)/RebA 30.81/61.63/0.00/7.56 ml): Insoluble
Response 1 Solubility ([3]; Water/Phosphoric Acid/Ethanol (190 Proof)/RebA 33.13/0.00/66.26/0.60 ml): 1
Response 1 Solubility ([3]; Water/Phosphoric Acid/Ethanol (190 Proof)/RebA 33.13/33.13/33.13/0.60 ml): 1
Response 1 Solubility ([3]; Water/Phosphoric Acid/Ethanol (190 Proof)/RebA 33.13/66.26/0.00/0.60 ml): Insoluble
SMILES: C=C1C[C@@]23CC[C@H]4[C@@](C)(CCC[C@@]4(C)C(=O)O[C@@H]4O[C@H](CO)[C@@H](O)[C@H](O)[C@H]4O)[C@@H]2CC[C@]1(O[C@@H]1O[C@H](CO)[C@@H](O)[C@H](O[C@@H]2O[C@H](CO)[C@@H](O)[C@H](O)[C@H]2O)[C@H]1O[C@@H]1O[C@H](CO)[C@@H](O)[C@H](O)[C@H]1O)C3 [Reb A, rebaudioside A]
solubility rating on the scale [1]: 3 (a solubility of 3 may be represented by 1% to 5% v/v of pellet)
